# Source: PMC11604048, “Constrained TACC3 peptidomimetics for a non-canonical protein–protein interface elucidate allosteric communication in Aurora-A kinase” (Chemical Science, 2024)
# Where two headings read alike, the source gives them in different places. *1 amine or outer side, *2 acyl side, *3 side chain or, on linkers, in order; H or OH if unused. Where a SMILES comes first, the peptide text is derived from it. Bridges are numbered along the chain shown (N, C = ends). Biphenyl(4,4'-CH2)2 = c1cc(-c2ccc(C[*:2])cc2)ccc1C[*:1]; Maleimide(3,4-diyl) = O=C1NC(=O)C([*:2])=C1[*:1]
# Molecular target: T1, Aurora-A122-403-C290A/C393A (Homo sapiens, UniProt O14965, C290A/C393A)
# T1 construct: Human Aurora-A kinase domain 122-403 wild-type or C290A/ C393A mutant; His tag (pET30TEV vector) (N, cleaved yes); made in house; host or cells: E. coli RIL, co-expressed with lambda phosphatase (Aurora-A); tracer by solid phase synthesis
# T1 sequence (O14965 122-403 C290A/C393A): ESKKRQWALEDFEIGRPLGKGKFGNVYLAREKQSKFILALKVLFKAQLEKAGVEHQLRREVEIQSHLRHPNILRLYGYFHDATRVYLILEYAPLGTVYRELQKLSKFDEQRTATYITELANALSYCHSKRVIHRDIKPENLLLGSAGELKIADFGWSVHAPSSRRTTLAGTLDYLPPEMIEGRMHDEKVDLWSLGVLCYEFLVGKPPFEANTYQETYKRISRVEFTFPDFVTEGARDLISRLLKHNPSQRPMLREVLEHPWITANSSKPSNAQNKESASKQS
# Assay: Competition FA assay against FAM-Ahx-TACC3 522-536 tracer
# Type: binding
# Description: Once completed, the mixtures were transferred into SPPS fritted reaction vessels and washed with H2O (5X, 10 mL, 2 min), DMF (5X, 5mL, 2 min) and DCM (5X, 5 mL, 2 min). The clean resins were dried under vacuum and the cyclic peptides cleaved from the resin following the general procedures described in previous sections. After Et2O precipitation, the crude materials were freeze-dried and redissolved in H2O/MeCN/TFA 90/10/0.1% v/v for preparative HPLC purification.
# All disulfide peptide variants (ox) were produced in situ from their free-thiol solid precursors. For this, 2 mg of the pure peptide materials were dissolved in aqueous DMSO 33% v/v to a 10 mM concentration and were left open to air oxidation at room temperature overnight. […]
# the peptides were employed for FA competition assays and IC50 evaluation without further additional […]
# Fluorescence anisotropy (FA) assays – General information.
# All assays were performed using 384-well plates(Greiner Bio-one, UK). […]
# produced as described previously.11 All samples were prepared in 25 mM Tris,150 mM NaCl, 5 mM MgCl2, pH= 7.5, unless otherwise stated, and tested in triplicate using an EnVisionTM 2103 MultiLabel plate reader (PerkinElmer; Waltham, MA, USA).The parameters were set as follows: Excitation wavelength = 480 nm (30 nm bandwidth) and emission wavelength = 535 nm (30 nm bandwidth). Measured data were processed and analysed as previously described.12 Specifically, the perpendicular intensity (P) and parallel intensity (S) were subtracted by the control values and used for calculations of intensity and anisotropy using the following Equations 1, 2, 3, 4, and 5:
# I= (2PG) + S Eq. (SI − 5)
# r = (S − PG) Eq. (SI − 6)
# L = r − r௠௜௡ Eq. (SI − 7)
# y = (k + x + [FL]) − ඥ(k + x + [FL]2 − 4 ∗ x ∗ [FL]) Eq. (SI − 8)
# y = r + r௠௜௡ − r௠௔௫ Eq. (SI − 9)
# Where I = total intensity; P = perpendicular intensity; S = parallel intensity; G = instrument factor; r = anisotropy; Lb = ligand bound fraction; λ = change in intensity between bound and unbound states which […]
# FA direct binding assays. […]
# starting from 700 μM, diluted over 24 points in a 1/2 regime using the FAM-Ahx-labeled peptides at a final fixed concentration of 50 nM per well.
# FA competition assays were performed using the same plates and buffer as described above, with the initial […]
# 14 points in a 1/2 regime. […]
# after 4 h of incubation to enable appropriate sample equilibration. To prevent sample oxidation, when sulfhydryl peptides were analyzed DTT was added to the buffer (5 mM). In competition mode, the average anisotropy and the average standard deviation of the values derived from equation SI-6 were calculated and fit to a sigmoidal logistic model (equation SI-9) using Origin 2021. When using peptides for which full […]
# For consistency, all the data […]
# indicating the corresponding SD. […]
# [1] = as E1, free-sulfhydryl (reduced) species, DTT 5 mM in buffer, WT control (+DTT), mean ± SD, n = 3, read-out: IC50 (red)
# [2] = as E1, oxidised (disulfide) species made in situ from 10 mM stock in aqueous DMSO 33% v/v, air, overnight, WT control (+DMSO) given the same DMSO incubation, mean ± SD, n = 3, read-out: IC50 (ox)
smiles,measurement,setting,value
CC(=O)N[C@@H](CCC(=O)O)C(=O)N[C@@H](CCC(=O)O)C(=O)N[C@@H](CO)C(=O)N[C@@H](Cc1ccccc1)C(=O)N[C@@H](CS)C(=O)N[C@@H](CC(=O)O)C(=O)N1CCC[C@H]1C(=O)N[C@@H](C)C(=O)N[C@@H](CCC(=O)O)C(=O)N[C@@H](CS)C(=O)N[C@@H](CC(C)C)C(=O)NCC(=O)N[C@H](C(=O)NCC(=O)N[C@@H](C)C(N)=O)[C@@H](C)O [TACC3 522-536 R526C/V531C (red)] (Ac-EESFCDPAECLGTGA-NH2),IC50,[1],≥ 500 µM
CC(=O)N[C@@H](CCC(=O)O)C(=O)N[C@@H](CCC(=O)O)C(=O)N[C@@H](CO)C(=O)N[C@@H](Cc1ccccc1)C(=O)N[C@@H](CS)C(=O)N[C@@H](CC(=O)O)C(=O)N1CCC[C@H]1C(=O)N[C@@H](CS)C(=O)N[C@@H](CCC(=O)O)C(=O)N[C@H](C(=O)N[C@@H](CC(C)C)C(=O)NCC(=O)N[C@H](C(=O)NCC(=O)N[C@@H](C)C(N)=O)[C@@H](C)O)C(C)C [TACC3 522-536 R526C/A529C (red)] (Ac-EESFCDPCEVLGTGA-NH2),IC50,"as E1, free-sulfhydryl (reduced) species, DTT 5 mM in buffer, WT control (+DTT), mean ± SD, n = 3, SD, read-out: IC50 (red)",352 ± 45 µM
CC(=O)N[C@@H](CCC(=O)O)C(=O)N[C@@H](CCC(=O)O)C(=O)N[C@@H](CO)C(=O)N[C@@H](Cc1ccc(C#N)cc1)C(=O)N[C@@H](CCCNC(=N)N)C(=O)N[C@@H](CC(=O)O)C(=O)N1CCC[C@H]1C(=O)N[C@@H](C)C(=O)N[C@@H](CCC(=O)O)C(=O)N[C@H](C(=O)N[C@@H](CC(C)C)C(=O)NCC(=O)N[C@H](C(=O)NCC(=O)N[C@@H](C)C(N)=O)[C@@H](C)O)C(C)C [TACC3 522-536_(4-CN) -525F],IC50,"SD, read-out: IC50",138 ± 8 µM
CC(=O)N[C@@H](CCC(=O)O)C(=O)N[C@@H](CCC(=O)O)C(=O)N[C@@H](CO)C(=O)N[C@@H](Cc1ccccc1)C(=O)N[C@@H](CCCNC(=N)N)C(=O)N[C@@H](CS)C(=O)N1CCC[C@H]1C(=O)N[C@@H](C)C(=O)N[C@@H](CS)C(=O)N[C@H](C(=O)N[C@@H](CC(C)C)C(=O)NCC(=O)N[C@H](C(=O)NCC(=O)N[C@@H](C)C(N)=O)[C@@H](C)O)C(C)C [TACC3 522-536 D527C/E530C (red)] (Ac-EESFRCPACVLGTGA-NH2),IC50,[1],≥ 500 µM
CC(=O)N[C@@H](CCC(=O)O)C(=O)N[C@@H](CCC(=O)O)C(=O)N[C@@H](CO)C(=O)N[C@@H](Cc1ccccc1)C(=O)N[C@@H](CCCNC(=N)N)C(=O)N[C@@H](CC(=O)O)C(=O)N1CCC[C@H]1C(=O)N[C@@H](C)C(=O)N[C@H]1CSSC[C@@H](C(=O)N[C@H](C(=O)NCC(=O)N[C@@H](C)C(N)=O)[C@@H](C)O)NC(=O)[C@H](CC(C)C)NC(=O)[C@H](C(C)C)NC1=O [TACC3 522-536 E530C/G533C (ox)] (Ac-EESFRDPACVLCTGA-NH2; disulfide 9-12),IC50,[2],≥ 500 µM
"CC(=O)N[C@@H](CCC(=O)O)C(=O)N[C@@H](CCC(=O)O)C(=O)N[C@@H](CO)C(=O)N[C@@H](Cc1ccccc1)C(=O)N[C@@H](CCCNC(=N)N)C(=O)N[C@@H](CC(=O)O)C(=O)N1CCC[C@H]1C(=O)N[C@@H](C)C(=O)N[C@@H](CCC(=O)O)C(=O)N[C@H](C(=O)N[C@@H](CC(C)C)C(=O)N[C@H]1CSC2=C(SC[C@@H](C(N)=O)NC(=O)CNC(=O)[C@H]([C@@H](C)O)NC1=O)C(=O)NC2=O)C(C)C [TACC3 522-536 G533C/A536C (mal)] (Ac-EESFRDPAEVLCTGC-NH2; linker 12-15 via Maleimide(3,4-diyl))",IC50,"as E1, Table S3 (mal): maleimide-constrained species, WT value is an individual replica control assay, mean ± SD, n = 3, read-out: IC50 (mal)",≥ 500 µM
CC(=O)N[C@@H](CCC(=O)O)C(=O)N[C@@H](CCC(=O)O)C(=O)N[C@@H](CO)C(=O)N[C@@H](Cc1ccc(Br)cc1)C(=O)N[C@@H](CCCNC(=N)N)C(=O)N[C@@H](CC(=O)O)C(=O)N1CCC[C@H]1C(=O)N[C@@H](C)C(=O)N[C@@H](CCC(=O)O)C(=O)N[C@H](C(=O)N[C@@H](CC(C)C)C(=O)NCC(=O)N[C@H](C(=O)NCC(=O)N[C@@H](C)C(N)=O)[C@@H](C)O)C(C)C [TACC3 522-536_(4-Br)525F],IC50,"SD, read-out: IC50",34 ± 6 µM
CC(=O)N[C@@H](CCC(=O)O)C(=O)N[C@@H](CCC(=O)O)C(=O)N[C@H]1CSSC[C@@H](C(=O)N2CCC[C@H]2C(=O)N[C@@H](C)C(=O)N[C@@H](CCC(=O)O)C(=O)N[C@H](C(=O)N[C@@H](CC(C)C)C(=O)NCC(=O)N[C@H](C(=O)NCC(=O)N[C@@H](C)C(N)=O)[C@@H](C)O)C(C)C)NC(=O)[C@H](CCCNC(=N)N)NC(=O)[C@H](Cc2ccccc2)NC1=O [TACC3 522-536 S524C/D527C (ox)] (Ac-EECFRCPAEVLGTGA-NH2; disulfide 3-6),IC50,[2],≥ 500 µM
"CC(=O)N[C@@H](CCC(=O)O)C(=O)N[C@@H](CCC(=O)O)C(=O)N[C@@H](CO)C(=O)N[C@@H](Cc1ccccc1)C(=O)N[C@@H](CCCNC(=N)N)C(=O)N[C@H]1CSC2=C(SC[C@@H](C(=O)N[C@H](C(=O)N[C@@H](CC(C)C)C(=O)NCC(=O)N[C@H](C(=O)NCC(=O)N[C@@H](C)C(N)=O)[C@@H](C)O)C(C)C)NC(=O)[C@H](C)NC(=O)[C@@H]3CCCN3C1=O)C(=O)NC2=O [TACC3 522-536 D527C/E530C (mal)] (Ac-EESFRCPACVLGTGA-NH2; linker 6-9 via Maleimide(3,4-diyl))",IC50,"as E1, Table S3 (mal): maleimide-constrained species, WT value is an individual replica control assay, mean ± SD, n = 3, SD, read-out: IC50 (mal)",186 ± 50 µM
CC(=O)N[C@@H](CCC(=O)O)C(=O)N[C@@H](CCC(=O)O)C(=O)N[C@@H](CO)C(=O)N[C@@H](Cc1ccccc1)C(=O)N[C@@H](CCCNC(=N)N)C(=O)N[C@@H](CC(=O)O)C(=O)N1CCC[C@H]1C(=O)N[C@@H](C)C(=O)N[C@@H](CCC(=O)O)C(=O)N[C@H]1CSSC[C@@H](C(=O)NCC(=O)N[C@@H](C)C(N)=O)NC(=O)CNC(=O)[C@H](CC(C)C)NC1=O [TACC3 522-536 V531C/T534C (ox)] (Ac-EESFRDPAECLGCGA-NH2; disulfide 10-13),IC50,[2],≥ 500 µM
CC(=O)N[C@@H](CCC(=O)O)C(=O)N[C@@H](CS)C(=O)N[C@@H](CO)C(=O)N[C@@H](Cc1ccccc1)C(=O)N[C@@H](CS)C(=O)N[C@@H](CC(=O)O)C(=O)N1CCC[C@H]1C(=O)N[C@@H](C)C(=O)N[C@@H](CCC(=O)O)C(=O)N[C@H](C(=O)N[C@@H](CC(C)C)C(=O)NCC(=O)N[C@H](C(=O)NCC(=O)N[C@@H](C)C(N)=O)[C@@H](C)O)C(C)C [TACC3 522-536 E523C/R526C (red)] (Ac-ECSFCDPAEVLGTGA-NH2),IC50,[1],≥ 500 µM
"CC(=O)N[C@@H](CC(C)C)C(=O)N[C@@H](CCC(=O)O)C(=O)N[C@H]1CSCc2ccc(cc2)-c2ccc(cc2)CSC[C@@H](C(=O)N[C@@H](CC(=O)O)C(=O)N2CCC[C@H]2C(=O)N[C@@H](C)C(=O)N[C@@H](CCC(=O)O)C(=O)N[C@H](C(=O)N[C@@H](CC(C)C)C(N)=O)C(C)C)NC(=O)[C@H](Cc2ccccc2)NC(=O)[C@H](CO)NC(=O)[C@H](CCC(=O)O)NC(=O)[C@H](CCC(=O)O)NC(=O)[C@H](CCCCN)NC1=O [TACC3 518-532 L520C/R526C (Bph)] (Ac-LECKEESFCDPAEVL-NH2; linker 3-9 via Biphenyl(4,4'-CH2)2)",fold enhanced inhibitory potency (IC50) compared to the WT peptide,competition FA IC50 ratio vs WT,up to 4 fold
CC(=O)N[C@@H](CCC(=O)O)C(=O)N[C@@H](CCC(=O)O)C(=O)N[C@@H](CO)C(=O)N[C@@H](Cc1ccccc1)C(=O)N[C@@H](CCCNC(=N)N)C(=O)N[C@@H](CC(=O)O)C(=O)N1CCC[C@H]1C(=O)N[C@@H](C)C(=O)N[C@@H](CCC(=O)O)C(=O)N[C@@H](CS)C(=O)N[C@@H](CC(C)C)C(=O)NCC(=O)N[C@@H](CS)C(=O)NCC(=O)N[C@@H](C)C(N)=O [TACC3 522-536 V531C/T534C (red)] (Ac-EESFRDPAECLGCGA-NH2),IC50,[1],≥ 500 µM
